The record followed here is patent US4737506A, “Anti-arteriosclerotic pyridyl or imidazolyl derivatives of carbonyloxyalkyl hantzsch esters” (Kowa Co., Ltd., priority 1984, dated 1988).

This assay concerns thromboxane B2 (TXB2) formation. Kind of assay: Percent inhibition against thromboxane B2 (TXB2) formation in collagen-stimulated PRP from mice after oral administration (RIA). Type of assay: in vivo, ddY male mouse. The settings on record: Mus musculus, blood collected 1 hour later, 12.5 μg/ml collagen, TXB2 5 minutes later; for inhibition at 30 mg/kg: 30 mg/kg oral; for inhibition at 100 mg/kg: 100 mg/kg oral. On the procedure: Using a ddY male mouse having a body weight of 35-40 g, one of the representative compounds of this invention was administered orally. One hour later, citrated blood was collected. PRP (platelet-rich plasma) was separated. Aggregation of platelets by the addition of 12.5 μg/ml of collagen was observed by an aggregometer. The amount of thromboxane B2 (a stable metabolite of thromboxane A2) formed 5 minutes later in the liquid reaction mixture was measured by the RIA method. Results are shown in Table 1, in terms of percent inhibition against the formation of thromboxane B2 (TXB2).

Structures are written as SMILES.

With `COC(=O)C1=C(C)NC(C)=C(C(=O)OCCOC(=O)c2ccc(OCCn3ccnc3)cc2)C1c1cccc(Cl)c1Cl` (stereo not shown) [Ex. 16, 3-Methyl 5-[2-[4-[2-(1-imidazolyl)ethoxy]-benzoyloxy]ethyl]2,6-dimethyl-4-(2,3-dichlorophenyl)-1,4-dihydropyridine-3,5-dicarboxylate], at 30 mg/kg the inhibition was 75% and the inhibition at 100 mg/kg came to 94%.
With `COC(=O)C1=C(C)NC(C)=C(C(=O)OCCOC(=O)C=Cc2ccc(Cn3ccnc3)cc2)C1c1cccc([N+](=O)[O-])c1` (stereo not shown) [Ex. 8, 3-Methyl 5-[2-[3-[4-(1-imidazolylmethyl)-phenyl]acryloyloxy]ethyl]2,6-dimethyl-4-(3-nitrophenyl)-1,4-dihydropyridine-3,5-dicarboxylate], the inhibition at 30 mg/kg was 60% and 100 mg/kg produced 72% inhibition.
Molecule `COC(=O)C1=C(C)NC(C)=C(C(=O)OCCOC(=O)C=Cc2ccc(Cn3ccnc3)cc2)C1c1ccccc1F` (stereo not shown) [Ex. 14, 3-Methyl 5-[2-[3-[4-(1-imidazolylmethyl)phenyl]acryloyloxy]ethyl]2,6-dimethyl-4-(2-fluorophenyl)-1,4-dihydropyridine-3,5-dicarboxylate] displayed an inhibition at 30 mg/kg of 52% and an inhibition at 100 mg/kg of 83%.
`CCOC(=O)C1=C(C)NC(C)=C(C(=O)OCCCOC(=O)c2ccc(OCCn3ccnc3)cc2)C1c1cccc([N+](=O)[O-])c1` (stereo not shown) [Ex. 6, 3-Ethyl 5-[3-[4-[2-(1-imidazolyl)ethoxyl]benzoyloxy]propyl]2,6-dimethyl-4-(3-nitrophenyl)-1,4-dihydropyridine-3,5-dicarboxylate] displayed an inhibition at 30 mg/kg of 74% and an inhibition at 100 mg/kg of 95%.
As for `CCOC(=O)C1=C(C)NC(C)=C(C(=O)OCCOC(=O)c2ccc(OCCn3ccnc3)cc2)C1c1cccc([N+](=O)[O-])c1` (stereo not shown) [Ex. 2, 3-Ethyl 5-[2-[4-[2-(1-imidazolyl)-ethoxy]-benzoyloxy]-ethyl]2,6-dimethyl-4-(3-nitrophenyl)-1,4-dihydropyridine-3,5-dicarboxylate], the inhibition at 30 mg/kg was 42% and the inhibition at 100 mg/kg was 72%.
